For the test, the target named is T1, arylamine-N-acetyltransferase (TBNAT) (Mycobacterium tuberculosis, UniProt P9WJI5).
T1 construct: gene nat
T1 sequence (P9WJI5 1-283): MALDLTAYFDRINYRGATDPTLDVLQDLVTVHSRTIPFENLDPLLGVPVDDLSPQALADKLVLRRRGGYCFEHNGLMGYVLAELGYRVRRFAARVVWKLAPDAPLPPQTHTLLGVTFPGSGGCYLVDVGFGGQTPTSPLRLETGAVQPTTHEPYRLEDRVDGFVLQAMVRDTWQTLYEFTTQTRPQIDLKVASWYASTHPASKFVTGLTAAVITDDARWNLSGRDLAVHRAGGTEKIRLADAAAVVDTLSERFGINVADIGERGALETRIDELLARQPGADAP
The test can be described thus: biochemical.

Experimental findings from paper PMC6891772 (Marine Drugs, 2019) are described below.

Consider `CC(=O)O[C@H]1CC(C)(C)C(=C=C/C(C)=C/C=C/C(C)=C/C=C/C=C(C)/C=C/C=C(\C)C(=O)C[C@@]23O[C@]2(C)C[C@@H](O)CC3(C)C)[C@](C)(O)C1` [fucoxanthin], for which the 50% inhibitory concentration (IC50) was determined as 4.8 ± 0.4 µM.
On to `NNC(=O)c1ccncc1` [isoniazid], for which 5.9 ± 0.2 µM corresponded to half-maximal inhibition (IC50). This IC50 and that of the compound before are within 1.5-fold of each other.
